Results: ChEMBL document CHEMBL3421586, “1,19-seco-Avermectin analogues from a ΔaveCDE mutant Streptomyces avermectinius strain” (J Nat Prod, 2015)
Counter-ions that a name gives are not always drawn.

Tests used:
Type in all cases: functional, cell-based
[1] = Growth inhibition of human Saos2 cells by MTT method; conditions: SAOS-2
[2] = Growth inhibition of human MG63 cells by MTT method; conditions: MG-63
B16 = assay: Growth inhibition of mouse B16 cells by MTT method

| IC50 (B16) [µM] | Compound | IC50 [1] [µM] | IC50 [2] [µM] |
| --- | --- | --- | --- |
| 14.7 | CC[C@H](C)[C@H]1O[C@@]2(CCC[C@@H](C/C=C(\C)[C@@H](O)[C@@H](C)/C=C/C=C(\C)c3cc(O)c(C)cc3C(=O)O)O2)C[C@H](O)[C@@H]1C | 1.9 | 5.1 |
| 40.6 | CC[C@H](C)[C@H]1O[C@@]2(CCC[C@@H](C/C=C(\C)[C@@H](O[C@H]3C[C@H](OC)[C@@H](O)[C@H](C)O3)[C@@H](C)/C=C/C=C(\C)c3cc(O)c(C)cc3C(=O)O)O2)C[C@H](O)[C@@H]1C | 0.7 | 1.7 |
| 6.4 | COc1cccc2c1C(=O)c1c(O)c3c(c(O)c1C2=O)C[C@@](O)(C(=O)CO)C[C@@H]3O[C@H]1C[C@H](N)[C@H](O)[C@H](C)O1 [DOXORUBICIN HYDROCHLORIDE] | 4.2 | 5.2 |
| 35.1 | CC[C@H](C)[C@H]1O[C@@]2(C=CC[C@@H](C/C=C(\C)[C@@H](O)[C@@H](C)/C=C/C=C(\C)c3cc(O)c(C)cc3C(=O)O)O2)C=C[C@@H]1C | 2.5 | 6.9 |

| Compound | IC50 (B16) [µM] | IC50 [1] [µM] | IC50 [2] [µM] |
| --- | --- | --- | --- |
| CC[C@H](C)[C@H]1O[C@]2(C=C[C@@H]1C)C[C@@H]1C[C@@H](C/C=C(\C)[C@@H](O[C@H]3C[C@H](OC)[C@@H](O[C@H]4C[C@H](OC)[C@@H](O)[C@H](C)O4)[C@H](C)O3)[C@@H](C)/C=C/C=C3\CO[C@@H]4[C@H](O)C(C)=C[C@@H](C(=O)O1)[C@]34O)O2 [ABAMECTIN COMPONENT B1A] | 20.5 | 14.7 | 8.6 |
